Experimental data taken from patent US5336763A, “Trisazo dye and dye composition containing the same” (Orient Chemical Industries, Ltd., priority 1992, dated 1994).
Where two headings read alike, the source gives them in different places.

Legend:
[1] = background; cited from earlier work
strains TA98 = assay type: cell-based
Procedure: Regarding various specimen solutions respectively containing trisazo dyes obtained in Examples 1 to 11 to the present invention and dyes of Comparative Examples 1 to 3, the number of mutant colonies was determined using strains TA98. 2. When the ratio is less than 2, it is "negative" and, when the ratio is more than 2, it is "positive", and the results are shown in Table. 1.

C.I. Direct Black 168
Ames test [1]: false positive or positive

Nc1ccc(N=Nc2ccc(N=Nc3c(S(=O)(=O)[O-])cc4cc(S(=O)(=O)[O-])c(N=Nc5ccc(N=Nc6ccc(N)cc6N)cc5)c(O)c4c3N)cc2)c(N)c1.[Na+].[Na+] [C.I. Direct Black 19]
Ames test [1]: false positive or positive

Cc1cc(-c2ccc(N=Nc3c(S(=O)(=O)[O-])cc4cc(S(=O)(=O)[O-])c(N=Nc5ccccc5)c(O)c4c3N)c(C)c2)ccc1N=Nc1ccc(N)cc1N.[Na+].[Na+] [C.I. Direct Black 154]
Ames test [1]: false positive or positive

Nc1ccc(N=Nc2ccc(S(=O)(=O)c3ccc(N=Nc4c(S(=O)(=O)O)cc5cc(S(=O)(=O)O)c(N=Nc6ccccc6)c(O)c5c4N)cc3)cc2)c(O)c1 [compound 2, reference compound]
Ames test: ratio of number of colonies to control (strains TA98; 20 μg/plate, with S-9): 5.26 | Ames test: ratio of number of colonies to control (strains TA98; 20 μg/plate, without S-9): 1.10 | Ames test: ratio of number of colonies to control (strains TA98; 78 μg/plate, with S-9): 26.3 | Ames test: ratio of number of colonies to control (strains TA98; 78 μg/plate, without S-9): 1.52 | Ames test: ratio of number of colonies to control (strains TA98; 313 μg/plate, with S-9): 9.11 | Ames test: ratio of number of colonies to control (strains TA98; 313 μg/plate, without S-9): 1.29 | Ames test: ratio of number of colonies to control (strains TA98; 1250 μg/plate, with S-9): 1.23 | Ames test: ratio of number of colonies to control (strains TA98; 1250 μg/plate, without S-9): 1.38 | Ames test: ratio of number of colonies to control (strains TA98; 5000 μg/plate, with S-9): 1.61 | Ames test: ratio of number of colonies to control (strains TA98; 5000 μg/plate, without S-9): 3.38 | AMES evaluation (strains TA98; strains TA98): Positive (when the ratio is more than 2, it is "positive")
